Results from patent US9637487B2, “Purinone compounds as kinase inhibitors” (Pharmacyclics LLC, priority 2013, dated 2017).

Target: Btk (Homo sapiens (Human), UniProt Q06187)
Assay: Btk in vitro inhibitory activity (one of Method A TR-FRET, Method B mobility shift, Method C radiometric filter binding)
Type: biochemical
Settings: determined using one of the methods outlined in Example 36a, 36b and 36c
Description: Btk kinase activity is determined using a time-resolved fluorescence resonance energy transfer (TR-FRET) methodology. Measurements are performed in a reaction volume of 50 μL using 96-well assay plates. […] The reaction is quenched by the addition of 1.2 equivalents of EDTA (relative to divalent cation) in 25 μL of 1× Lance buffer (Perkin-Elmer). […] The TR-FRET signal is measured on a multimode plate reader with an excitation wavelength (λEx) of 330 nm and detection wavelengths (λEm) of 615 and 665 nm. Activity is determined by the ratio of the fluorescence at 665 nm to that at 615 nm. For each compound, enzyme activity is measured at various concentrations of compound. Negative control reactions are performed in the absence of inhibitor in replicates of six, and two no-enzyme controls are used to determine baseline fluorescence levels Inhibition constants, Ki(app), ware obtained using the program BatchKi (Kuzmic et al. (2000), Anal. Biochem. 286:45-50). IC50s are obtained according to the equation: IC50={Ki(app)/(1+[ATP]/Km^ATP)}+[E]total/2;
Kinase activity is measured in vitro using electrophoretic mobility shift assay. The kinase reactions are assembled in a total volume of 25 μL in 384 well plates. […] The reaction is incubated for one hour and is quenched by the addition of 45 μL of termination buffer (100 mM HEPES, pH7.5, 0.01% Triton X-100, 30 mM EDTA). The terminated reactions are analyzed using 12 channel LabChip® 3000 microfluidic detection instrument (Caliper Life Sciences). […] Change in the relative fluorescence intensity of the substrate and product peaks is the parameter measured, reflecting enzyme activity. In the presence of an inhibitor, the ratio between product and substrate is altered: the signal of the product decreases, while the signal of the substrate increases.
Activity in each sample is determined as the product to sum ratio (PSR):P/(S+P), where P is the peak height of the product peptide and S is the peak height of the substrate peptide. For each compound, enzyme activity is measured at various concentrations (12 concentrations of compound spaced by 3× dilution intervals). Negative control samples (0%-inhibition in the absence of inhibitor) and positive control samples (100%-inhibition, in the presence of 20 mM EDTA) are assembled in replicates of four and are used to calculate %-inhibition values for each inhibitor at each concentration. Percent inhibition (Pinh) is determined using following equation: Pinh=(PSR0%−PSRinh)/(PSR0%−PSR100%)*100, where PSRinh is the product sum ratio in the presence of inhibitor, PSR0% is the average product sum ration in the absence of inhibitor and PSR100% is the average product sum ratio in 100%-inhibition control samples;
The IC50 values of inhibitors are determined by 4 parameter sigmoidal dose-response model fitting of the inhibition curves (Pinh versus inhibitor concentration) using XLfit 4 software.
IC50 values and curve fits were obtained using Prism (GraphPad Software).
The degree of Btk inhibition was determined using one of the methods outlined in Example 36a, 36b and 36c.

Btk, sequence (Q06187 whole entry): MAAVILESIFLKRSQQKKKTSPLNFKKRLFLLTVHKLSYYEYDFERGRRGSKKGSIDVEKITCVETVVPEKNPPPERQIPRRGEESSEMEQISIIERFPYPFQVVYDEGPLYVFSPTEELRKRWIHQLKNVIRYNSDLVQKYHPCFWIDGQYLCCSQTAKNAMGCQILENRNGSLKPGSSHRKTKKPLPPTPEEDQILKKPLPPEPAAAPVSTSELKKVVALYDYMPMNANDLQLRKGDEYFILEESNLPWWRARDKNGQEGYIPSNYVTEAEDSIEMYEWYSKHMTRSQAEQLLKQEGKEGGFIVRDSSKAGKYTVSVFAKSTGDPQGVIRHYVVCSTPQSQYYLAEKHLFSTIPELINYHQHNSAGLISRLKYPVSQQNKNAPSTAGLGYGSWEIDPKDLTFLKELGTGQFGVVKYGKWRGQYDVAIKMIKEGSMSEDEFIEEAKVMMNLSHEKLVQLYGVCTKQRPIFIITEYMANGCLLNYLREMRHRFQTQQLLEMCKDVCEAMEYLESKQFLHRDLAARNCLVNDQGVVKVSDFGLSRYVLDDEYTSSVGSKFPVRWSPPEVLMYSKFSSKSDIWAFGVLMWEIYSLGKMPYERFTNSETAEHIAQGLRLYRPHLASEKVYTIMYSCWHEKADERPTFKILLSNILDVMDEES

Row | SMILES | IC50 [nM]
1 | CN(C(=O)/C=C/CN(C)C1CC1)c1cccc(-n2c(=O)n(-c3ncc(Oc4ccccc4)cn3)c3c(N)ncnc32)c1 [Compound 69, (E)-N-(3-(6-amino-8-oxo-7-(5-phenoxypyrimidin-2-yl)-7H-purin-9(8H)-yl)phenyl)-4-(cyclopropyl(methyl)amino)-N-methylbut-2-enamide] | < 100
2 | CNC(=O)/C(C#N)=C/c1cccc(-n2c(=O)n(-c3ccc(Oc4ccccc4)cc3)c3c(N)ncnc32)c1 [Compound 44, (E)-3-(3-(6-amino-8-oxo-7-(4-phenoxyphenyl)-7H-purin-9(8H)-yl)phenyl)-2-cyano-N-methylacrylamide] | < 100
3 | CN(C(=O)/C=C/CN(C)C1CC1)c1cccc(-n2c(=O)n(-c3ccc(Oc4ccccc4)cn3)c3c(N)ncnc32)c1 [Compound 58, (E)-N-(3-(6-amino-8-oxo-7-(5-phenoxypyridin-2-yl)-7H-purin-9(8H)-yl)phenyl)-4-(cyclopropyl(methyl)amino)-N-methylbut-2-enamide] | < 100
4 | CN(C(=O)CC#N)c1cccc(-n2c(=O)n(-c3ccc(Oc4ccccc4)cc3)c3c(N)ncnc32)c1 [Compound 33, N-(3-(6-amino-8-oxo-7-(4-phenoxyphenyl)-7H-purin-9(8H)-yl)phenyl)-2-cyano-N-methylacetamide] | 100 to 1000
5 | CN(C)C/C=C/C(=O)N(C)c1cccc(-n2c(=O)n(-c3ccc(C(=O)Nc4cccc(C(F)(F)F)c4)cc3)c3c(N)ncnc32)c1 [Compound 11, (E)-4-(6-amino-9-(3-(4-(dimethylamino)-N-methylbut-2-enamido)phenyl)-8-oxo-8,9-dihydro-7H-purin-7-yl)-N-(3-(trifluoromethyl)phenyl)benzamide] | < 100
6 | CN(C)C/C=C/C(=O)N(C)c1cccc(-n2c(=O)n(-c3ccc(C(=O)Nc4ncccc4F)cc3)c3c(N)ncnc32)c1 [Compound 13, (E)-4-(6-amino-9-(3-(4-(dimethylamino)-N-methylbut-2-enamido)phenyl)-8-oxo-8,9-dihydro-7H-purin-7-yl)-N-(3-fluoropyridin-2-yl)benzamide] | 100 to 1000
7 | C=CC(=O)N(C)c1cccc(-n2c(=O)n(-c3ccc(OC4CC4)cc3)c3c(N)ncnc32)c1 [Compound 30, N-(3-(6-amino-7-(4-cyclopropoxyphenyl)-8-oxo-7H-purin-9(8H)-yl)phenyl)-N-methylacrylamide] | < 100
8 | CCc1ccnc(NC(=O)c2ccc(-n3c(=O)n(-c4cccc(N(C)C(=O)/C=C/CN(C)C)c4)c4ncnc(N)c43)cc2)c1 [Compound 8, (E)-4-(6-amino-9-(3-(4-(dimethylamino)-N-methylbut-2-enamido)phenyl)-8-oxo-8,9-dihydro-7H-purin-7-yl)-N-(4-ethylpyridin-2-yl)benzamide] | < 100

Results, then the compound that gave them:

Row | IC50 [nM] | SMILES
9 | 100 to 1000 | CN(C(=O)C1(C#N)CC1)c1cccc(-n2c(=O)n(-c3ccc(Oc4ccccc4)cc3)c3c(N)ncnc32)c1 [Compound 34, N-(3-(6-amino-8-oxo-7-(4-phenoxyphenyl)-7H-purin-9(8H)-yl)phenyl)-1-cyano-N-methylcyclopropanecarboxamide]
10 | < 100 | Cc1nc(NC(=O)c2ccc(-n3c(=O)n(-c4cccc(N(C)C(=O)/C=C/CN(C)C)c4)c4ncnc(N)c43)cc2)sc1C [Compound 21, (E)-4-(6-amino-9-(3-(4-(dimethylamino)-N-methylbut-2-enamido)phenyl)-8-oxo-8,9-dihydro-7H-purin-7-yl)-N-(4,5-dimethylthiazol-2-yl)benzamide]
11 | < 100 | Cc1csc(NC(=O)c2ccc(-n3c(=O)n(-c4cccc(N(C)C(=O)/C=C/CN(C)C)c4)c4ncnc(N)c43)cc2)n1 [Compound 20, (E)-4-(6-amino-9-(3-(4-(dimethylamino)-N-methylbut-2-enamido)phenyl)-8-oxo-8,9-dihydro-7H-purin-7-yl)-N-(4-methylthiazol-2-yl)benzamide]
12 | < 100 | CN(C)C/C=C/C(=O)N(C)c1cccc(-n2c(=O)n(-c3ccc(C(=O)Nc4ccccn4)cc3)c3c(N)ncnc32)c1 [Compound 6, (E)-4-(6-amino-9-(3-(4-(dimethylamino)-N-methylbut-2-enamido)phenyl)-8-oxo-8,9-dihydro-7H-purin-7-yl)-N-(pyridin-2-yl)benzamide]
